Data reported in PubChem BioAssay (NCI).
Values joined by “and” are separate entries in the source; they are usually repeats but may differ in a detail not shown here. Identical values can stand only once.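 Five compound concentrations were applied to cells in 96-well plates for 48 hours; endpoints were derived by simple linear interpolation of the resulting dose-response curve. The concentration for 50% growth inhibition is given as GI50. At the TGI there is no net growth.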

Columns and labels:
Test in all cases: growth of human tumour cells (NCI), 48 h
786-0 renal = system: 786-0 renal
HCT-116 colon = system: HCT-116 colon
HCT-15 colon = system: HCT-15 colon
HS 578T breast = system: HS 578T breast
K-562 leukemia = system: K-562 leukemia
M14 melanoma = system: M14 melanoma
MALME-3M melanoma = system: MALME-3M melanoma
MDA-MB-435 = system: MDA-MB-435
MDA-N = system: MDA-N
MOLT-4 leukemia = system: MOLT-4 leukemia
NCI-H226 lung = system: NCI-H226 lung
OVCAR-3 ovarian = system: OVCAR-3 ovarian
SN12C renal = system: SN12C renal
SW-620 colon = system: SW-620 colon
U251 CNS = system: U251 CNS
UO-31 renal = system: UO-31 renal
HL-60(TB) leukemia = system: HL-60(TB) leukemia

Compound | TGI (786-0 renal) | TGI (HCT-116 colon) | TGI (HCT-15 colon) | TGI (HS 578T breast) | TGI (K-562 leukemia) | TGI (M14 melanoma) | TGI (MALME-3M melanoma) | TGI (MDA-MB-435) | TGI (MDA-N) | TGI (MOLT-4 leukemia) | TGI (NCI-H226 lung) | TGI (OVCAR-3 ovarian) | TGI (SN12C renal) | TGI (SW-620 colon) | TGI (U251 CNS) | TGI (UO-31 renal) | TGI (HL-60(TB) leukemia) | GI50 (NCI-H226 lung) | GI50 (SN12C renal) | GI50 (SW-620 colon)
Cc1ccc(N(C)S(=O)(=O)c2ccccc2)cc1 | > 100 µM | > 100 µM | > 100 µM | > 100 µM | > 100 µM | > 100 µM | > 100 µM | > 100 µM | > 100 µM | > 100 µM | > 100 µM | > 100 µM | > 100 µM | > 100 µM | > 100 µM | > 100 µM | – | – | – | –
CC12OC3(C(O)C1O)C(C(=O)O[C@H]3CO[Si](C)(C)C(C)(C)C)C2S(=O)(=O)c1ccccc1 (some centres not stated) | > 100 µM | > 100 µM | 89.6 µM | > 100 µM | > 100 µM | > 100 µM | – | > 100 µM | > 100 µM | 55.7 µM | 58.3 µM | > 100 µM | > 100 µM | > 100 µM | > 100 µM | > 100 µM | 67.9 µM | – | – | –
COc1cc(CC(C)N[C@@H](C)c2ccccc2)cc(OC)c1 (some centres not stated) | 17.3 µM and > 100 µM | 26 µM and > 100 µM | 16.1 µM and > 100 µM | > 100 µM | – | 21.9 µM and > 100 µM | – | 19.6 µM and > 100 µM | 16.3 µM and > 100 µM | 17.4 µM and > 100 µM | 38.2 µM and > 100 µM | 21.1 µM and > 100 µM | 24.2 µM and > 100 µM | 26.3 µM and > 100 µM | 19.8 µM and > 100 µM | 13.9 µM and > 100 µM | 10.7 µM and > 100 µM | 15.1 µM and > 100 µM | 11.8 µM and > 100 µM | 11.7 µM and > 100 µM
O=[N+]([O-])c1ccc(OP(=O)(O)OCC2OC(CP(=O)(O)O)C(O)C2O)cc1 (configuration not stated) | > 100 µM | > 100 µM | > 100 µM | > 100 µM | > 100 µM | > 100 µM | – | > 100 µM | > 100 µM | > 100 µM | – | > 100 µM | > 100 µM | > 100 µM | > 100 µM | > 100 µM | > 100 µM | – | – | –
CCOC(=O)C1=COC(C)(C)CC1=O | > 100 µM | > 100 µM | > 100 µM | > 100 µM | > 100 µM | > 100 µM | – | > 100 µM | > 100 µM | > 100 µM | – | > 100 µM | > 100 µM | > 100 µM | > 100 µM | > 100 µM | – | – | – | –
O=C1C=Cc2c1csc2Br | > 100 µM | > 100 µM | > 100 µM | > 100 µM | 97.7 µM | 47.2 µM | > 100 µM | > 100 µM | > 100 µM | 54.7 µM | – | > 100 µM | > 100 µM | 48.8 µM | > 100 µM | 72.5 µM | – | – | – | –
COC(=N)c1ncn(Cc2ccccc2)c1N | > 100 µM | > 100 µM | > 100 µM | > 100 µM | > 100 µM | > 100 µM | > 100 µM | > 100 µM | > 100 µM | – | > 100 µM | > 100 µM | > 100 µM | > 100 µM | > 100 µM | – | – | – | – | –
N#Cc1c(N)nc2c(N=Nc3ccccc3)c(N)nn2c1Nc1ccccc1 | 38.5 µM | 27 µM | > 100 µM | – | > 100 µM | 31.5 µM | 49.7 µM | 39.6 µM | 38.5 µM | 7.97 µM | 53.9 µM | 35.1 µM | 27.7 µM | 50.3 µM | 24.6 µM | – | 6.56 µM | – | – | –
NC(CCC(=O)NC(CSC(=O)N(O)c1ccc(Cl)cc1)C(=O)NCC(=O)O)C(=O)O (configuration not stated) | > 0.5 µM | > 0.5 µM | > 0.5 µM | > 0.5 µM | > 0.5 µM | > 0.5 µM | – | > 0.5 µM | > 0.5 µM | > 0.5 µM | > 0.5 µM | > 0.5 µM | > 0.5 µM | > 0.5 µM | > 0.5 µM | > 0.5 µM | – | – | – | –
O=C(Nc1ccc(Cl)cc1Cl)c1cc2nc3ccccc3c(=O)n2c2ccccc12 | > 10 µM | > 10 µM | > 10 µM | > 10 µM | > 10 µM | > 10 µM | > 10 µM | > 10 µM | > 10 µM | – | – | > 10 µM | – | > 10 µM | > 10 µM | > 10 µM | > 10 µM | – | – | –
CC(=O)N1N=C(c2ccc3ccccc3c2O)CC1c1ccc(Cl)cc1Cl (configuration not stated) | > 100 µM | > 100 µM | > 100 µM | > 100 µM | > 100 µM | > 100 µM | > 100 µM | > 100 µM | > 100 µM | > 100 µM | > 100 µM | > 100 µM | > 100 µM | > 100 µM | > 100 µM | > 100 µM | – | – | – | –
Cc1cc(CN(Cc2ccccc2)Cc2nc3ccccc3[nH]2)c(O)c(CN(Cc2nc3ccccc3[nH]2)Cc2nc3ccccc3[nH]2)c1 | 73.4 µM | 23.1 µM | > 23.1 µM | > 100 µM | > 26.3 µM | 26.6 µM | > 93.2 µM | 36.1 µM | 29 µM | 42.1 µM | > 50.9 µM | 63.5 µM | > 100 µM | > 100 µM | > 100 µM | 36.7 µM | – | – | – | –
N#Cc1nc(-c2ccccc2O)oc1N | > 100 µM | > 100 µM | > 100 µM | > 100 µM | > 100 µM | > 100 µM | – | > 100 µM | > 100 µM | > 100 µM | – | – | > 100 µM | > 100 µM | > 100 µM | – | > 100 µM | – | – | –
CC(=O)O[C@@H]1[C@@H](C)[C@]2(CC(c3ccoc3)OC2O)C2CCC3O[C@]3(C)[C@]2(C)[C@@H]1OC(C)=O (some centres not stated) | 39.9 µM | > 100 µM | > 100 µM | > 100 µM | – | > 100 µM | – | > 100 µM | > 100 µM | 64.9 µM | 87.9 µM | > 100 µM | > 100 µM | > 100 µM | > 100 µM | > 100 µM | 48.7 µM | – | – | –
c1ccc(N=C2C(=Nc3ccccc3)N(C3CCCCC3)C(=NC3CCCCC3)N2c2ccccc2)cc1 | > 100 µM | > 100 µM | > 100 µM | > 100 µM | > 100 µM | > 100 µM | > 100 µM | – | > 100 µM | > 100 µM | > 100 µM | – | – | > 100 µM | > 100 µM | > 100 µM | > 100 µM | – | – | –
O=C1CC(NCCCNC2CC(=O)c3c(Br)sc(Br)c32)c2c(Br)sc(Br)c21 (configuration not stated) | 2.63 µM | 2.41 µM | 3.56 µM | > 44.6 µM | – | 4.39 µM | 4.21 µM | 4.28 µM | 5.54 µM | 1.21 µM | 12.6 µM | – | 4.77 µM | > 100 µM | 2.82 µM | – | > 100 µM | – | – | –
CCOC(=O)C(Cc1ccc2c(c1)CCC2)Cc1ccc2c(c1)CCC2 | > 100 µM | > 100 µM | > 100 µM | > 100 µM | 85.7 µM | > 100 µM | > 100 µM | > 100 µM | > 100 µM | 41.1 µM | – | > 100 µM | – | > 100 µM | > 100 µM | > 100 µM | 58.2 µM | – | – | –
COC(=O)C(=O)c1cc2ccccc2n1S(=O)(=O)c1ccccc1 | > 100 µM | > 100 µM | > 100 µM | – | > 100 µM | > 100 µM | > 100 µM | > 100 µM | > 100 µM | > 100 µM | – | > 100 µM | > 100 µM | > 100 µM | > 100 µM | > 100 µM | > 100 µM | – | – | –
Cc1ccc(S(=O)(=O)N/N=C2/C3C(CC2(C)C)C2(C)CCCC3(C)C2O)cc1 (configuration not stated) | 45.3 µM | 33.9 µM | 60 µM | 55.6 µM | > 100 µM | 56.3 µM | 45.4 µM | – | 37.9 µM | 57.6 µM | 35.3 µM | > 100 µM | 36.5 µM | – | 32.1 µM | > 100 µM | > 100 µM | – | – | –
Cn1c2c(c3ccccc31)CC(=O)N1CCCC(C1)CC21OCCO1 (configuration not stated) | > 100 µM | > 100 µM | > 100 µM | – | > 100 µM | > 100 µM | > 100 µM | > 100 µM | > 100 µM | > 100 µM | > 100 µM | > 100 µM | > 100 µM | > 100 µM | > 100 µM | > 100 µM | > 100 µM | – | – | –
COc1ccc(N2C(=O)C(C#N)=C(SC)C(C#N)C2=O)cc1 (configuration not stated) | > 100 µM | > 100 µM | > 100 µM | 89.8 µM | > 100 µM | > 100 µM | > 100 µM | > 100 µM | > 100 µM | > 100 µM | > 100 µM | – | > 100 µM | > 100 µM | > 100 µM | – | – | – | – | –
CNC(=O)C1CCC(=O)N1CN(C(C)=O)c1ccccc1 (configuration not stated) | > 100 µM | > 100 µM | > 100 µM | > 100 µM | > 100 µM | > 100 µM | > 100 µM | > 100 µM | > 100 µM | > 100 µM | > 100 µM | > 100 µM | > 100 µM | > 100 µM | > 100 µM | > 100 µM | – | – | – | –
c1ccc(CNCCCNCCCCNCCCNCc2ccccc2)cc1 | 2.97 µM | 14.4 µM | 33.8 µM | 3.74 µM | – | 16.1 µM | 5.01 µM | 8.91 µM | 4.13 µM | 2.74 µM | 17.2 µM | 28.3 µM | 15.5 µM | 9.13 µM | 22.5 µM | 25.7 µM | 4 µM | – | – | –
